Article PMC7073886, “Structure–Bioactivity Relationships of Lapatinib Derived Analogs against Schistosoma mansoni” (ACS Medicinal Chemistry Letters, 2020)

Columns and labels:
[1] = Log D7.4 shake-flask octanol-water; assay type: physicochemical; conditions: pH 7.4
Method: Log D7.4. Shake-flask octanol-water distribution coefficient was determined at pH 7.4 (Log D7.4). The aqueous solution used is 10 mM sodium phosphate pH 7.4 buffer. The method has been validated for Log D7.4 ranging from -2 to 5.0.
Human Plasma Protein Binding (PPB). PPB was determined using equilibrium dialysis (RED device) to separate free from bound compound. The amount of compound in plasma (10 µM initial concentration) and in dialysis buffer (pH 7.4 phosphate buffer) was measured by LC-MS/MS after equilibration at 37 °C in a dialysis chamber. The fraction unbound (fu) is reported.
Human Liver Microsomal Clint. In vitro intrinsic clearance was determined from human liver microsomes using a standard approach.11 Following incubation and preparation, the samples were analyzed using […]
Rat Hepatocyte Clint. In vitro intrinsic clearance was determined from rat hepatocytes using a standard approach.11 Following incubation and preparation, the samples were analyzed using LC/MS/MS. Refined […]
Calculated LogP and LogD values. Both LogP and LogD predictions are based on a modified version of the method12 where the predicted partition coefficients are composed of the molecules’ atomic increments.
General Chemistry. All starting materials were commercially obtained and were used without further purification, unless specified. Reaction solvents were purified by passage through alumina columns on a purification system manufactured by Innovative Technology (Newburyport, MA). NMR spectra were obtained on Varian NMR systems, operating at 400 or 500 MHz for 1 H acquisitions. LCMS analysis was performed using a Waters AllianceHT e2795 reverse phase HPLC (Waters SunFire C18 4.6 × 50 mm, 3.5 μm column), with a Waters 2996 photodiode array detector scanning from 210 nm to 600 nm, and Waters Micromass ZQ detector (electrospray ionization). Where required, final compounds were purified by preparative reverse phase HPLC (columns Waters Symmetry RP8 30 × 50 mm, 5 μm column, or OBD RP18 30 × 50 mm, 5 μm), with a single wavelength UV−visible detector and Waters Micromass ZQ (electrospray ionization).

Rat hepatocyte Clint = assay type: in vitro ADME; conditions: rat hepatocytes, intrinsic clearance; read-out: RH CLint
adult S. mansoni = experiment: Phenotypic screen of adult S. mansoni worms, severity scores and descriptors; assay type: cell-based, Schistosoma mansoni; conditions: for Descriptors (10 µM) 1 h / Severity Scores (10 μM) 1 h / Descriptors (10 µM) 5 h / Severity Scores (10 μM) 5 h / Descriptors (10 µM) 24 h / Severity Scores (10 μM) 24 h / Descriptors (10 µM) 48 h / Severity Scores (10 μM) 48 h: adult S. mansoni; for Descriptors (10 µM) 1 h / Descriptors (10 µM) 5 h / Descriptors (10 µM) 24 h / Descriptors (10 µM) 48 h: phenotypic descriptors; for Severity Scores (10 μM) 1 h / Severity Scores (10 μM) 5 h / Severity Scores (10 μM) 24 h / Severity Scores (10 μM) 48 h: scale 0 (no activity) to 4 (maximal activity); for bioactivity against adult S. mansoni: adult schistosomes; for Severity Scores (10 μM) 1 h / Severity Scores (10 μM) 5 h / Severity Scores (10 μM) 24 h / Severity Scores (10 μM) 48 h / bioactivity against adult S. mansoni: 10 μM
Description: Because the schistosome parasite can present multiple and dynamic phenotypic responses to chemical insult,[16] we employ a constrained nomenclature of descriptors to describe the changes in the parasite as a function of time and concentration (e.g., motility, density, and shape; and in the case of the adult parasite, an inability to adhere to the bottom of the assay dish). These descriptors are converted into severity scores on a scale of 0 (green)–4 (severest/red) that allow for partially quantitative comparisons of compound effects.[1]−[19] […] The descriptors themselves and their respective scores are detailed in the Supporting Information, Table S1. Severity score data are presented in the results (with the corresponding descriptors detailed in the Supporting Information, Tables S2–S8), and eight new analogs developed and synthesized in support of this effort are described. Finally, absorption, distribution, metabolism and excretion (ADME) data of all compounds presented in this work are reported in the Supporting Information, Table S15.
Table S1. Descriptors and associated severity scores used for S. mansoni adults.
R (rounded or shape altered 1
On sides (adults unable to 1
Shrunk (adults are shorter 1
surface (tegument) of adults)
dfailed to create analytical method
Maintenance of the Schistosoma mansoni life cycle (NMRI isolate), the preparation of adult worms (≥ 42-
days-old), and their co-incubation with test compounds were as described.7-9 Phenotypic responses were
visually recorded using a constrained nomenclature and converted to severity scores on a scale from zero
(no activity) to 4 (maximal activity).8, 9 Use of hamsters for maintaining the S. mansoni life-cycle was
approved by the Institutional Animal Care and Use Committee of the University of California San Diego.
The human myelomonocytic cell line THP -1 was grown at 37 °C and 5% CO2 in RPMI-1640 supplemented
with 10% iFBS, 2 mM glutamate, 100 U/mL penicillin and […] streptomycin.
Drug toxicity to HepG2 cells .10 HepG2 cells line were obtained from the American Type Culture
Collection and cultured in Minimal Essential Medium (MEM) supplemented with 0.19% sodium
bicarbonate, 10% Fetal Bovine Serum, 2 mM L -glutamine, 0.1 mM MEM non-essential amino, 0.009
mg/mL insulin, 1.76 mg/mL bovine serum albumin. The viability of the cells was measured using the MTT
(thiazolyl blue reduction) method. Briefly, ninety -six-well plates were seeded with 2.5 × 10^4 cells/well in
170 ml of culture medium and incubated overnight in 5% CO 2 at 37 °C. Cells were exposed to different
experimental compounds in DMSO. After 48 hours incubation, the viability of the cells was assessed using
MTT (thiazolyl blue reduction) as a dose response assay (11 two -fold serial dilutions) to obtain a calculated
IC50 determination. 4-Azaindolo[2,1-b]quinazoline-6,12-dione is used as a toxicity positive control and
each assay plate includes the following 3 additional controls: a) background control: no cells and no drug
was added, b) target control: cells added but no drugs, and c) DMSO control: same as the target control
except the culture media contains 0.6% DMSO. Absorbance was determined in all wells using a Perkin
Elmer, Ensight plate reader. The fifty percent inhibitory concentrations (IC50’s) were determined using
GraphPad Prism nonlinear regr ession (sigmoidal dose -response, variable slope) equation .
ADME Experiment Protocols
Aqueous pH 7.4 Solubility. Compounds were dried down from 10 mM DMSO solutions using centrifugal
evaporation technique. Phosphate buffer (0.1 M pH 7.4) was added and StirStix were inserted in the glass
vials, with shaking then performed at a constant temperature of 25 °C for 20 -24 h. This step was followed
by double centrifugation with a tip wash in between, to ensure that no residues of the dried compounds
interfere. The solutions were diluted before analysis and quantification using LC/MS/MS was performed.

[2] = Human liver microsomal Clint; assay type: in vitro ADME; conditions: human liver microsomes, intrinsic clearance; read-out: HLM Clint

SMILES: O=C(O)C1CCCN1c1ncc(-c2ccc3c(Nc4cnccn4)ccnc3c2)cn1 (centres unmarked) [3c]
- logD [1]: 0.1
- hepatocyte CLint (Rat hepatocyte Clint): < 1 µL/min/1e6 cells
- Descriptors (10 µM) 1 h (adult S. mansoni): none
- Severity Scores (10 μM) 1 h (adult S. mansoni): 0
- Descriptors (10 µM) 5 h (adult S. mansoni): none
- Severity Scores (10 μM) 5 h (adult S. mansoni): 0
- Descriptors (10 µM) 24 h (adult S. mansoni): none
- Severity Scores (10 μM) 24 h (adult S. mansoni): 0
- Descriptors (10 µM) 48 h (adult S. mansoni): none
- Severity Scores (10 μM) 48 h (adult S. mansoni): 0
- bioactivity against adult S. mansoni (adult S. mansoni): no bioactivity
- microsomal CLint [2]: < 3 µL/min/mg

SMILES: COC(=O)C1CCCN1c1ncc(-c2ccc3c(Nc4cnccn4)ccnc3c2)cn1 (centres unmarked) [3d]
- logD [1]: 3.5
- hepatocyte CLint (Rat hepatocyte Clint): 230 µL/min/1e6 cells
- Descriptors (10 µM) 1 h (adult S. mansoni): none
- Severity Scores (10 μM) 1 h (adult S. mansoni): 0
- Descriptors (10 µM) 5 h (adult S. mansoni): none
- Severity Scores (10 μM) 5 h (adult S. mansoni): 0
- Severity Scores (10 μM) 24 h (adult S. mansoni): 3
- Severity Scores (10 μM) 48 h (adult S. mansoni): 4
- bioactivity against adult S. mansoni (adult S. mansoni): bioactivity after 24 h, progressing to the severest response by 48 h
- microsomal CLint [2]: 220 µL/min/mg

SMILES: CN(CCNc1ncc(-c2ccc3c(Nc4cnccn4)ccnc3c2)cn1)C(=O)OC(C)(C)C [3e]
- logD [1]: 4.1
- hepatocyte CLint (Rat hepatocyte Clint): > 300 µL/min/1e6 cells
- Descriptors (10 µM) 1 h (adult S. mansoni): none
- Severity Scores (10 μM) 1 h (adult S. mansoni): 0
- Descriptors (10 µM) 5 h (adult S. mansoni): none
- Severity Scores (10 μM) 5 h (adult S. mansoni): 0
- Descriptors (10 µM) 24 h (adult S. mansoni): none
- Severity Scores (10 μM) 24 h (adult S. mansoni): 0
- Severity Scores (10 μM) 48 h (adult S. mansoni): 4
- bioactivity against adult S. mansoni (adult S. mansoni): maximal phenotypic response after 48 h
- microsomal CLint [2]: > 300 µL/min/mg

SMILES: CC(C)(C)OC(=O)N1CCN(c2ncc(-c3ccc4c(Nc5cnccn5)ccnc4c3)cn2)CC1 [3a]
- logD [1]: 4.7
- hepatocyte CLint (Rat hepatocyte Clint): 32 µL/min/1e6 cells
- Descriptors (10 µM) 1 h (adult S. mansoni): none
- Severity Scores (10 μM) 1 h (adult S. mansoni): 0
- Descriptors (10 µM) 5 h (adult S. mansoni): none
- Severity Scores (10 μM) 5 h (adult S. mansoni): 0
- Descriptors (10 µM) 24 h (adult S. mansoni): none
- Severity Scores (10 μM) 24 h (adult S. mansoni): 0
- Descriptors (10 µM) 48 h (adult S. mansoni): none
- Severity Scores (10 μM) 48 h (adult S. mansoni): 0
- bioactivity against adult S. mansoni (adult S. mansoni): no bioactivity
- microsomal CLint [2]: > 300 µL/min/mg

SMILES: CCCN1CCCN(c2ncc(-c3ccc4c(Nc5cnccn5)ccnc4c3)cn2)CC1 [4f]
- logD [1]: 3.3
- hepatocyte CLint (Rat hepatocyte Clint): 32 µL/min/1e6 cells
- Descriptors (10 µM) 1 h (adult S. mansoni): none
- Severity Scores (10 μM) 1 h (adult S. mansoni): 0
- Descriptors (10 µM) 5 h (adult S. mansoni): none
- Severity Scores (10 μM) 5 h (adult S. mansoni): 0
- Descriptors (10 µM) 24 h (adult S. mansoni): none
- Severity Scores (10 μM) 24 h (adult S. mansoni): 0
- Descriptors (10 µM) 48 h (adult S. mansoni): none
- Severity Scores (10 μM) 48 h (adult S. mansoni): 0
- microsomal CLint [2]: > 300 µL/min/mg

SMILES: CN1CCN(c2ncc(-c3ccc4c(NCC5CCOCC5)ccnc4c3)cn2)CC1 [S1e]
- logD [1]: 2
- hepatocyte CLint (Rat hepatocyte Clint): 23 µL/min/1e6 cells
- Descriptors (10 µM) 1 h (adult S. mansoni): none
- Severity Scores (10 μM) 1 h (adult S. mansoni): 0
- Descriptors (10 µM) 5 h (adult S. mansoni): none
- Severity Scores (10 μM) 5 h (adult S. mansoni): 0
- Descriptors (10 µM) 24 h (adult S. mansoni): none
- Severity Scores (10 μM) 24 h (adult S. mansoni): 0
- Severity Scores (10 μM) 48 h (adult S. mansoni): 1
- bioactivity against adult S. mansoni (adult S. mansoni): no significant bioactivity

SMILES: CN1CCN(c2ncc(-c3ccc4c(NC5CCC(N(C)C)CC5)ccnc4c3)cn2)CC1 (centres unmarked) [S1a]
- logD [1]: 0.3
- hepatocyte CLint (Rat hepatocyte Clint): 4.2 µL/min/1e6 cells
- Descriptors (10 µM) 1 h (adult S. mansoni): none
- Severity Scores (10 μM) 1 h (adult S. mansoni): 0
- Descriptors (10 µM) 5 h (adult S. mansoni): none
- Severity Scores (10 μM) 5 h (adult S. mansoni): 0
- Descriptors (10 µM) 24 h (adult S. mansoni): none
- Severity Scores (10 μM) 24 h (adult S. mansoni): 0
- bioactivity against adult S. mansoni (adult S. mansoni): no significant bioactivity

SMILES: CN1CCN(c2ncc(-c3ccc4c(N[C@@H]5CCCC[C@H]5O)ccnc4c3)cn2)CC1 [S1c]
- logD [1]: 1.7
- hepatocyte CLint (Rat hepatocyte Clint): 8.1 µL/min/1e6 cells
- Descriptors (10 µM) 1 h (adult S. mansoni): none
- Severity Scores (10 μM) 1 h (adult S. mansoni): 0
- Descriptors (10 µM) 5 h (adult S. mansoni): none
- Severity Scores (10 μM) 5 h (adult S. mansoni): 0
- Descriptors (10 µM) 24 h (adult S. mansoni): none
- Severity Scores (10 μM) 24 h (adult S. mansoni): 0
- bioactivity against adult S. mansoni (adult S. mansoni): no significant bioactivity

SMILES: CN1CCCN(c2ncc(-c3ccc4c(Nc5cnccn5)ccnc4c3)cn2)CC1 [4d]
- logD [1]: 2.6
- hepatocyte CLint (Rat hepatocyte Clint): 54 µL/min/1e6 cells
- Descriptors (10 µM) 1 h (adult S. mansoni): none
- Severity Scores (10 μM) 1 h (adult S. mansoni): 0
- Descriptors (10 µM) 5 h (adult S. mansoni): none
- Severity Scores (10 μM) 5 h (adult S. mansoni): 0
- Descriptors (10 µM) 24 h (adult S. mansoni): none
- Severity Scores (10 μM) 24 h (adult S. mansoni): 0
- Descriptors (10 µM) 48 h (adult S. mansoni): none
- Severity Scores (10 μM) 48 h (adult S. mansoni): 0
- bioactivity against adult S. mansoni (adult S. mansoni): complete loss in activity
